One molecule from patent publication US4737518A, “Lipid derivatives, their production and use” (Takeda Chemical Industries, Ltd., priority 1984, dated 1988) can be followed below.

Molecules are shown by their SMILES. “And” between values parts separate entries of the source, which are not always exact repeats. Identical values can stand only once.

By inhibition is commonly meant how much of the control response was suppressed.

Assay [1] concerns rabbit platelet aggregation by PAF. In words: Inhibitory activity on rabbit platelet aggregation by PAF. It counts as cell-based. The note with it: Oryctolagus cuniculus, PAF 1×10^-8 M, read-out: rate of inhibition of rabbit platelet aggregation by PAF.
For another assay, the system named is PAF-induced hypotension. In words: Inhibitory activity against PAF-induced hypotension in rats. The format is in vivo, rat (male Spraque-Dawley). The note with it: PAF 0.3 μg/kg i.v. On the procedure:
Inhibitory activity against PAF-induced hypotension in rats
Male Spraque-Dawley rats, with a body weight of about 400 g, were used under pentobarbital sodium (50 mg/kg, intravenous administration) anesthesia. A cannula was inserted into the femoral artery and secured in position for measurement of blood pressure and another cannula into the femoral vein for administration of a solution of the drug. The blood pressure was measured via a pressure transducer and recorded on a polygraph. First, 0.3 μg/kg of PAF was administered intravenously and the hypotensive response was recorded.
The inhibitory activity against PAF-induced hypotension was estimated from the rate of PAF-induced hypotensive response (Δ mmHg) after the drug administration to hypotensive response (Δ mmHg) by PAF before the drug administration.

Assay [2] has as its system endotoxin-induced hypotension. Description: Anti-endotoxin shock activity in rats. The format is in vivo, rat (male Spraque-Dawley). The note with it: endotoxin 15 mg/kg i.v., one minute after. On the procedure: Anti-endotoxin shock activity in rats
Male Spraque-Dawley rats weighting about 400 g were used under pentobarbital sodium (50 mg/kg, i.v.) anesthesia. A cannula was inserted into the femoral artery and secured in position for measurement of blood pressure and another cannula into femoral vein for administration of a solution of the drug. The blood pressure was measured via a pressure transducer and recorded on a polygraph. First, a suspension of endotoxin (15 mg/kg) [Lipopolysaccharide W.E. coli 0111: B4, Wako Pure Chemical] in physiological saline was administered intravenously and the maximum hypotensive response (Δ mmHg) occurring 3 to 5 minutes after administration was recorded. Simultaneously, the compound of Example 108 was dissolved in physiological saline and administered intravenously in a dose of 1 to 100 μg/kg. The restortion rate against endotoxin-induced hypotension one minute after the administration was calculated. The presence of preventive activity against endotoxin shock was judged from the strength of the restoration rate.

The next assay relates to HL-60 cells. In words: Effect on inducing differentiation of HL-60 cells (NBT-positive cells). The format is cell-based, human. The note with it: 6 days. On the procedure: Assay of the effects on inducing differentiation of HL-60 cells (human promyelocytic leukemia cells) and Neuro-2a cells (mouse neuroblastoma cells): RPMI-1640 medium (Flow Laboratories, Inc.) supplemented with 20% fetal calf serum (M.A. […] The culture was incubated at 37° C. in a 5% CO2 incubator for 6 days. […] The reaction was allowed to proceed at 37° C. for 20 minutes. The reaction was stopped by cooling with ice, and the cells were washed by means of centrifugation, followed by collecting 3-5×10^4 cells and by subjecting to centrifugation using Cytospin centrifuge to prepare a cell smear, which was fixed with methanol and stained with Kernechtrot solution. On each cell smear, the percentage of NBT-positive cells relative to live cells, […] by examination of a minimum of 200 cells, was expressed as the differentiation extent.

For assay [3], the system named is Neuro-2a cells. Description: Effect on morphological differentiation of neuroblastoma Neuro-2a. The note with it: three days, untreated 22. It counts as cell-based, mouse. On the procedure:
Assay of the effects on inducing differentiation of HL-60 cells (human promyelocytic leukemia cells) and Neuro-2a cells (mouse neuroblastoma cells):
For Neuor-2a cells, 1×10^4 cells were inoculated into GIT medium (Daigo-eiyo Chemicals, Japan) and one day later various amounts of the compound of Example 108 were added. The cells were incubated for following three days at 37° C. in a 5% CO2 incubator.
The percentage of cells that were morphologically similar to neurocyte with extended neurite was determined by microscopical examination of cells more than 200.

The subject of another assay is KB cells. Description: Cell growth inhibition assay, KB. The format is cell-based. The note with it: Homo sapiens, 72 h, concentration giving T/C 50%, day 4, read-out: ED50 (the source's name). On the procedure: (§1) 2×10^4 cells per well charged with GIT medium for KB cells (human epidermoid carcinoma cells), A549 cells (human lung carcinoma cells) and HSC-1 cells (human skin squamous carcinoma cells), and 4×10^4 cells for B16-BL6 cells (mouse melanoma cells) and 5×10^3 cells for Neuro-2a cells were inoculated. On day 1 (next day), various concentrations of the compound of Example 108 were added. On day 4, cells were suspended in a solution of trypsin-EDTA and the number of cells was counted. The ratio of cell number in treated culture to that in control culture was estimated as T/C (%) value. The concentration of the compound of Example 108 giving a value of T/C, 50% was defined as ED50.

The subject of the next assay is B16-BL6 cells. Description: Cell growth inhibition assay, B16-BL6. It counts as cell-based. The note with it: Mus musculus, 72 h, concentration giving T/C 50%, day 4, read-out: ED50 (the source's name). On the procedure: as §1
The next assay relates to HSC-1 cells. Description: Cell growth inhibition assay, HSC-1. The note with it: Homo sapiens, 72 h, concentration giving T/C 50%, day 4, read-out: ED50 (the source's name). The format is cell-based. On the procedure: as §1
Another assay relates to A549 cells. In words: Cell growth inhibition assay, A549. The note with it: Homo sapiens, 72 h, concentration giving T/C 50%, day 4, read-out: ED50 (the source's name). The format is cell-based. On the procedure:
as §1

In assay [4] the test system is Neuro-2a cells. Description: Cell growth inhibition assay, Neuro-2a. The note with it: Mus musculus, N2a, 72 h, concentration giving T/C 50%, day 4, read-out: ED50 (the source's name). The format is cell-based. On the procedure:
as §1

As for `CCCCCCCCCCCCCCCCCCNC(=O)OCC(COC(=O)N(Cc1cccc[n+]1CC)C(C)=O)OC` (stereo not drawn) [Example 108, 1-Ethyl-2-[N-acetyl-N-(3-octadecylcarbamoyloxy-2-methoxypropyloxy)carbonyl]aminomethylpyridinium chloride], the inhibition at 30 µM in assay [1] (test drug 3 × 10^-5 M) worked out at 100%. For the same molecule, in assay [1] (test drug 3 × 10^-6 M), the inhibition at 3 µM was determined as 100%. The inhibition at 0.3 µM in assay [1] (test drug 3 × 10^-7 M) turned out to be 100%. For the same molecule, the Restoration rate with PAF-induced hypotension (0.1 mg/kg i.v., after 5 min) came out at 100%; in the assay on PAF-induced hypotension (0.1 mg/kg i.v., after 60 min) it was 55%; in the assay on PAF-induced hypotension (1 mg/kg i.v., after 5 min), 100%; in the assay on PAF-induced hypotension (1 mg/kg i.v., after 60 min) it was 100%. Also, the “Restoration rate against endotoxin-induced hypotension” value in assay [2] (0.01 mg/kg i.v., 2 rats, single values) was 100% and 59%; in assay [2] (0.1 mg/kg i.v., 3 rats, mean ± standard error), 97 ± 1%. Further, in the assay on HL-60 cells, the “Maximum differentiation extent: Optimal conc.” value stood at 0.63 µg/mL. In addition, the Emax with HL-60 cells (Homo sapiens, HL-60, 144 h, at optimal conc., NBT-positive relative to live cells, read-out: Maximum differentiation extent: Differentiation) came out at 83%. Besides, the “% of cells with neurite” value amounted to 26% in the assay with Neuro-2a cells [3] (2.5 μg/ml); 33% in the assay on Neuro-2a cells [3] (5 μg/ml); 35% with Neuro-2a cells [3] (10 μg/ml); 44% in the assay on Neuro-2a cells [3] (15 μg/ml); 74% in the assay with Neuro-2a cells [3] (20 μg/ml). Moreover, the IC50 came out at 0.16 µg/mL in the assay with KB cells; 2.5 µg/mL in the assay with B16-BL6 cells; 0.63 µg/mL in the assay with HSC-1 cells; 0.63 µg/mL in the assay with A549 cells; 5 µg/mL in the assay on Neuro-2a cells [4].
